Type in all cases: in vivo
In assay [1] the test system is Western Flower Thrips (Frankliniella occidentalis, FRANOC). The experiment in a line: Bioassay 3: Western Flower Thrips, cotton leaf disc dip, live WFT counted 3 days after treatment. As to conditions: Frankliniella occidentalis, foliar, 72 h; for pest or weed control at 0.005 % strength: AI alone 0.005 % w/v. Here is the method:
Stock solutions of Formula One and various active ingredients were prepared initially at a concentration of 8 mg/ml for Formula One and 1 mg/mL for the active ingredients, respectively, using acetone as a diluent. Stock solutions were prepared with Formula One as well as for each of the active ingredients individually. Test solutions were prepared from the stock solutions. Test solutions were prepared containing Formula One, the individual active ingredients, and mixtures of Formula One with each of the active ingredients. The test solution for Formula One was prepared by adding 500 μL of the stock solution to a 25 mL glass vial, then adding 500 μL of acetone, followed by the addition of 9 mL water with 0.025% Tween®) 20 to create a 0.04% (w/v) solution. The test solutions of the individual active ingredients were prepared by adding 500 μL of stock solution to a 25 mL glass vial, then adding 500 μL of acetone, followed by the addition of 9 mL water with 0.025% Tween®) 20 to create a 0.005% (w/v) solution. The test solutions containing mixtures of Formula One and the individual active ingredients were prepared by adding 500 μL of the active ingredient stock solution to a 25 mL glass vial, followed by 500 μL of the Formula One stock solution, then by the addition of 9 mL water with 0.025% Tween®) 20 to create a test solution containing 0.04% (w/v) Formula One and 0.005% (w/v) of the active ingredient. Each test solution was serially diluted to create desired doses of test solutions (0.005% (w/v), 0.00125% (w/v), 0.0003125% (w/v), 0.000078% (w/v), and 0.0000195% (w/v)). In test solutions containing mixtures of Formula One and the active ingredients, the active ingredients were diluted as described above, but the Concentration of Formula One was held constant (0.04% (w/v)).
The test solutions were tested against WFT using the following procedure: Leaf discs (2.7 cm in diameter) were cut from the true leaves of cotton plants. Leaf discs were dipped into the test solutions and shaken to ensure complete coverage of the leaf disc and then placed in Millipore®) PetriSlides containing a filter paper disc. Treated leaf discs were air dried for approximately 1 hour. Each leaf disc was infested with 5 WFT (9-10-day old nymphs) by placement on each leaf disc, and the PetriSlides were capped to prevent escape. Each treatment was replicated three times and the test treatments were held at approximately 26° C. and ambient relative humidity (RH) prior to grading. Reference discs (solvent check) were treated with the diluent only. Evaluation was conducted by counting the number of live WFT under magnification 3 days after treatment. Percent control was measured using Abbott's correction formula (W. S. Abbott, J. Econ. Entomol. 18 (1925), pp. 265-267) as follows:
where X=No. of live nymphs on solvent check leaf discs and Y=No. of live nymphs on treated leaf discs. In Table B3 the “Expected % Control” was calculated using the method described in Colby S. R., Weeds, 1967, 15, 20-22. Bioassay 4: Western Tarnished Plant Bug (Lygus hesperus, LYGUHE) (“WTPB”).

In assay [2] the test system is Sweet Potato Whitefly (Bemisia tabaci, BEMITA). The assay can be described thus: Bioassay 2: Sweet Potato Whitefly, spray on cotton seedlings at crawler emergence, nymphs counted 7-9 days after treatment. Conditions: AI alone 0.1 (10-5) % w/v. Here is the method:
Stock solutions were prepared with Formula One as well as for each of the active ingredients individually. Test solutions were prepared from the stock solutions. Test solutions were prepared containing Formula One, the individual active ingredients, and mixtures of Formula One with each of the active ingredients. The test solutions for Formula One and the individual active ingredients were prepared by adding 500 μL of stock solution to a 25 mL glass vial, then adding 500 μL of acetone, followed by the addition of 9 mL water with 0.025% Tween®) 20 to create a 0.001% (w/v) solution. The test solutions containing mixtures of Formula One and the individual active ingredients were prepared by adding 500 μL of the active ingredient stock solution to a 25 mL glass vial, followed by 500 μL of the Formula One stock solution, then by the addition of 9 mL water with 0.025% Tween®) 20 to create a test solution containing 0.001% (w/v) Formula One and 0.001% (w/v) of the active ingredient. Each test solution was serially diluted to create desired doses of test solutions (0.001% (w/v), 0.0001% (w/v), 0.00001% (w/v), 0.000001% (w/v), 0.0000001% (w/v), and 0.00000001% (w/v)).
The test solutions were tested against SPW using the following procedure: Cotton seedlings grown in 3-inch pots, pruned so that only one true leaf remained, were used as test substrate. Adult B. tabaci were allowed to colonize the cotton plants and lay eggs for 24 hours after which all adults were removed from the plants using compressed air. Plants were monitored for egg development and, when crawler emergence was underway (>25% emergence based on visual examination using a microscope), the plants were sprayed using the test solutions and methods described above for green peach aphids (GPA). Treated plants were held in a holding room at approximately 25° C. and ambient relative humidity (RH) prior to grading. Evaluation was conducted by counting the number of developed 2-3 instar nymphs per plant under a microscope 7-9 days after treatment. Percent control was measured using Abbott's correction formula (W. S. Abbott, J. Econ. Entomol. 18 (1925), pp. 265-267) as follows:
where X=No. of live nymphs on solvent check plants and Y=No. of live nymphs on treated plants. In Table B2 the “Expected % Control” was calculated using the method described in Colby S. R., Weeds, 1967, 15, 20-22. Bioassay 3: Western Flower Thrips (Frankliniella occidentalis, FRANOC) (“WFT”).

In assay [3] the test system is Green Peach Aphid (Myzus persicae, MYZUPE). The assay can be described thus: Bioassay 1: Green Peach Aphid, foliar spray on infested cabbage seedlings, live aphids counted three days after treatment. Here is the method:
Bioassay 1: Green Peach Aphid (Myzus persicae, MYZUPE) (“GPA”).
The stock solutions were prepared with Formula One as well as for each of the active ingredients individually. Test solutions were prepared from the stock solutions. Test solutions were prepared containing Formula One, the individual active ingredients, and mixtures of Formula One with each of the active ingredients. The test solutions for Formula One and the individual active ingredients were prepared by adding 750 microliters (μL) of stock solution to a 25 mL glass vial, then adding 750 μL of 1:1 acetone: methanol solvent, followed by the addition of 13.5 ml water with 0.025% Tween®) 20 to create a 0.0005% (weight/volume (w/v)) solution. The test solutions containing mixtures of Formula One and the individual active ingredients were prepared by adding 750 μL of the active ingredient stock solution to a 25 mL glass vial, followed by 750 μL of the Formula One stock solution, then by the addition of 13.5 mL water with 0.025% Tween®) 20 to create a test solution containing 0.0005% (w/v) Formula One and 0.0005% (w/v) of the active ingredient. Each test solution was serially diluted to create desired doses of test solutions (0.0005% (w/v), 0.000125% (w/v), 0.00003125% (w/v), 0.0000078% (w/v), 0.00000195% (w/v), and 0.0000005% (w/v)).
The test solutions were tested against GPA using the following procedure: Cabbage seedlings, grown in 3-inch pots with 2-3 small (3-5 centimeter (cm)) true leaves, were used as test substrate. The seedlings were infested with 20-50 GPA (wingless adult and nymph stages) one day prior to chemical application. Four pots with individual seedlings were used for each treatment. A hand-held aspirator-type sprayer was used for spraying a solution to both sides of […] leaves until runoff. Reference plants (solvent check) were sprayed with the diluent only (0.025% Tween®) 20 and 10% acetone:methanol (1:1) in water). Treated plants were held in a holding room for three days at approximately 25° C. and ambient relative humidity (RH about 20% to about 45%) prior to grading. Evaluation was conducted by counting the number of live aphids per plant under a microscope three days after treatment. Percent control was measured using Abbott's correction formula (W. S. Abbott, J. Econ. Entomol. 18 (1925), pp. 265-267) as follows:
where X=No. of live aphids on solvent check plants and Y=No. of live aphids on treated plants. In Table B1 the “Expected % Control” was calculated using the method described in Colby S. R., Weeds, 1967, 15, 20-22. Bioassay 2: Sweet Potato Whitefly (Bemisia tabaci, BEMITA) (“SPW”).

Assay [4] has as its system Neotropical Brown Stink Bug (Euschistus heros, EUSCHE). The assay can be described thus: whole plant or invertebrate. As to conditions: Euschistus heros, 72 h, read-out: Average % Control AI. Here is the method:
X=No. of live nymphs on solvent check and Y=No. of live nymphs on treated bean segments. In Table B4 the “Expected % Control” was calculated using the method described in Colby S. R., Weeds, 1967, 15, 20-22. Bioassay 5: Neotropical Brown Stink Bug (Euschistus heros, EUSCHE) (“BSB”).
Stock solutions were prepared with Formula One as well as for each of the active ingredients individually. Test solutions were prepared from the stock solutions. Test solutions were prepared containing Formula One, the individual active ingredients, and mixtures of Formula One with each of the active ingredients. The test solution for Formula One was prepared by adding 500 μL of the stock solution to a 25 mL glass vial, then adding 500 μL of acetone, followed by the addition of 9 mL water with 0.025% Tween®) 20 to create a 0.04% (w/v) solution. The individual active ingredients were prepared by adding 500 μL of stock solution to a 25 mL glass vial, then adding 500 μL of acetone, followed by the addition of 9 mL water with 0.025% Tween®) 20 to create a 0.005% (w/v) solution. The test solutions containing mixtures of Formula One and the individual active ingredients were prepared by adding 500 μL of the active ingredient stock solution to a 25 mL glass vial, followed by 500 μL of the Formula One stock solution, then by the addition of 9 mL water with 0.025% Tween®) 20 to create a test solution containing 0.04% (w/v) Formula One and 0.005% (w/v) of the active ingredient. Each test solution was serially diluted to create desired doses of test solutions (0.01% (w/v), 0.0025% (w/v), 0.000625% (w/v), 0.000156% (w/v), and 0.000039% (w/v)). In test solutions containing mixtures of Formula One and the active ingredients, the active ingredients were diluted as described above, but the Concentration of Formula One was held constant (0.04% (w/v)).
The test solutions that were tested against BSB were similar to those described above for WTPB. Fresh green beans were cut into segments approximately 1.5 inches long. Four bean segments were added to each test solution and soaked for approximately 15 minutes. After soaking, a single bean fragment was removed and placed into a single well of a 32-well rearing tray (Frontier Agricultural Sciences™), on top of a round filter paper disc. A reference treatment (solvent check) was treated with the diluent only. Each treatment was replicated four times and the test treatments were held at approximately 26° C. and ambient relative humidity (RH) prior to grading. Bean segments were allowed to air dry for ˜30 minutes. Three BSB nymphs were added to and contained in each well with a clear perforated adhesive lid. The total number of living BSB nymphs was recorded 3 days after application. Scoring was based off the total number of living nymphs out of all four replicates. Percent control was measured using Abbott's correction formula (W. S. Abbott, J. Econ. Entomol. 18 (1925), pp. 265-267) as follows:
where X=No. of live nymphs on solvent check and Y=No. of live nymphs on treated bean segments. In Table B5 the “Expected % Control” was calculated using the method described in Colby S. R., Weeds, 1967, 15, 20-22. Bioassay 6: Beet Armyworm (Spodoptera exigua, LAPHEG) (BAW), and Diamondback Moth (Plutella xylostella, PLUTMA) (DBM).

Molecule `CC(COc1ccc(Oc2ccccc2)cc1)Oc1ccccn1` (stereo not shown) [Pyriproxyfen] displayed a pest or weed control at 0.00125 % strength in assay [1] (AI alone 0.00125 % w/v) of 17%. In addition, the “Average % Control AI” value in assay [2] stood at 8%.
With `COc1cccc(C(=O)NN(C(=O)c2cc(C)cc(C)c2)C(C)(C)C)c1C` [Methoxyfenozide], the “Average % Control AI” value in assay [3] (AI alone 0.195 (10^-5) % w/v) turned out to be 5%.
Turning to `CCOC(=O)OC1=C(c2cc(C)ccc2C)C(=O)N[C@]12CC[C@@H](OC)CC2` [Spirotetramat], in assay [3] (AI alone 0.05 (10^-5) % w/v), the “Average % Control AI” value worked out at 15%. In assay [1] (AI alone 0.000078 % w/v, read-out: Average % Control AI), the pest or weed control at 7.8e-05 % strength is 7%.
In the case of `CN/C(=N/CC1CCOC1)N[N+](=O)[O-]` (stereo not shown) [Dinotefuran], the pest or weed control at 0.000156 % strength in assay [4] came to 17%.
In assay [1], `CNC(=O)c1cc(Cl)cc(C)c1NC(=O)c1cc(Br)nn1-c1ncccc1Cl` [Chlorantraniliprole] yielded a pest or weed control at 0.005 % strength of 7%.
In turn, `CCOCn1c(-c2ccc(Cl)cc2)c(C#N)c(Br)c1C(F)(F)F` [Chlorfenapyr] came in with a pest or weed control at 0.005 % strength in assay [1] of 57%. In addition, the pest or weed control at 0.0025 % strength in assay [4] (AI alone 0.0025 % w/v) is 8%.
In the case of `CNC(=O)c1cc(C#N)cc(C)c1NC(=O)c1cc(Br)nn1-c1ncccc1Cl` [Cyantraniliprole], in assay [2], the “Average % Control AI” value is 0%.

The values are drawn from US20250338846A1, “COMPOSITIONS HAVING PESTICIDAL UTILITY AND PROCESSES RELATED THERETO” (CORTEVA AGRISCIENCE, LLC, priority 2022, published 2025).
